The target in experiment [1] is Phosphatidylinositol 4,5-bisphosphate 3-kinase catalytic subunit alpha isoform (Homo sapiens, UniProt P42336). As to the kind of experiment: Inhibition of PI3Kalpha.
For experiment [2], the target named is Proto-oncogene tyrosine-protein kinase Src (Homo sapiens) (UniProt P12931). As to the kind of experiment: Inhibition of cSRC assessed as activity remaining at 10 uM.
For experiment [3], the target named is Fibroblast growth factor receptor 1 (Homo sapiens) (UniProt P11362). As to the kind of experiment: Inhibition of FGFR1 assessed as activity remaining at 10 uM.
The target in experiment [4] is Tyrosine-protein kinase Fyn (Homo sapiens) (UniProt P06241). Briefly: Inhibition of Fyn assessed as activity remaining at 10 uM.
For experiment [5], the target named is Insulin-like growth factor 1 receptor (Homo sapiens) (UniProt P08069). Briefly: Inhibition of IGF1R assessed as activity remaining at 10 uM.
Experiment [6] deals with T1, Tyrosine-protein kinase ITK/TSK (Homo sapiens) (UniProt Q08881).
T1 sequence (whole entry): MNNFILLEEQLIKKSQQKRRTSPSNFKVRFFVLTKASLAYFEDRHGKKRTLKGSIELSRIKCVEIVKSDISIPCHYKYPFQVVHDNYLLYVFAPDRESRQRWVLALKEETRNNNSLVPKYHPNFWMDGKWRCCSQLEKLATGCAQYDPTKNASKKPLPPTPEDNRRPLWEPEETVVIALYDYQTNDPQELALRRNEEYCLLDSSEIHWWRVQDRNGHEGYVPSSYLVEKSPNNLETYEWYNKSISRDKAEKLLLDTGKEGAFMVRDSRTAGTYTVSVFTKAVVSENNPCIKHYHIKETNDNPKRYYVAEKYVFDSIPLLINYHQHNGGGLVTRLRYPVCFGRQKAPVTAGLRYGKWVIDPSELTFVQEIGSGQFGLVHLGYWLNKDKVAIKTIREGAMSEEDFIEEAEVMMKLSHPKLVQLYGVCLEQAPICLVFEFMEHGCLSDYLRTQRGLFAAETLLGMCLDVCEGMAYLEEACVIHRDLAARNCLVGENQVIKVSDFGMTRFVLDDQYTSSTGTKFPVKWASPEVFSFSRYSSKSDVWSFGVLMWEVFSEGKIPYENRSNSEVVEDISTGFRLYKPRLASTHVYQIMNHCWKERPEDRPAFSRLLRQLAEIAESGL
Briefly: Inhibition of Itk assessed as activity remaining at 10 uM.

Experiment [7] concerns the target Vascular endothelial growth factor receptor 2 (Homo sapiens) (UniProt P35968). As to the kind of experiment: Inhibition of KDR assessed as activity remaining at 10 uM.
Experiment [8] deals with SRSF protein kinase 3 (Homo sapiens) (UniProt Q9UPE1). Briefly: Inhibition of MSSK1 assessed as activity remaining at 10 uM.
Experiment [9] concerns the target T2, Serine/threonine-protein kinase Nek2 (Homo sapiens) (UniProt P51955).
T2 sequence (whole entry): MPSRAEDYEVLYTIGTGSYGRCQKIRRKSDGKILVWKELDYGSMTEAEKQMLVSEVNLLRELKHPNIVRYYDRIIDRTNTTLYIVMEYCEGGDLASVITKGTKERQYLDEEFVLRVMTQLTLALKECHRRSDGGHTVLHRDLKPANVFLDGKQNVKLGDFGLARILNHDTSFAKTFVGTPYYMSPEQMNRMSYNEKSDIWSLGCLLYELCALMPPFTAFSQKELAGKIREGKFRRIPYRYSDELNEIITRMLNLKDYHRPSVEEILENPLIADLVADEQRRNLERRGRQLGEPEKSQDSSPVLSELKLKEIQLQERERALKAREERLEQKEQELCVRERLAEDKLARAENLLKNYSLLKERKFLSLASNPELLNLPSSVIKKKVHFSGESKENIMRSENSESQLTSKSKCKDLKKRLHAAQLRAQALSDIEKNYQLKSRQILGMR
As to the kind of experiment: Inhibition of NEK2 assessed as activity remaining at 10 uM.

Experiment [10] has as its target Protein kinase C theta type (Homo sapiens) (UniProt Q04759). Briefly: Inhibition of PKC-theta assessed as activity remaining at 10 uM.
Experiment [11] deals with T3, Protein kinase C zeta type (Homo sapiens) (UniProt Q05513).
T3 sequence (whole entry): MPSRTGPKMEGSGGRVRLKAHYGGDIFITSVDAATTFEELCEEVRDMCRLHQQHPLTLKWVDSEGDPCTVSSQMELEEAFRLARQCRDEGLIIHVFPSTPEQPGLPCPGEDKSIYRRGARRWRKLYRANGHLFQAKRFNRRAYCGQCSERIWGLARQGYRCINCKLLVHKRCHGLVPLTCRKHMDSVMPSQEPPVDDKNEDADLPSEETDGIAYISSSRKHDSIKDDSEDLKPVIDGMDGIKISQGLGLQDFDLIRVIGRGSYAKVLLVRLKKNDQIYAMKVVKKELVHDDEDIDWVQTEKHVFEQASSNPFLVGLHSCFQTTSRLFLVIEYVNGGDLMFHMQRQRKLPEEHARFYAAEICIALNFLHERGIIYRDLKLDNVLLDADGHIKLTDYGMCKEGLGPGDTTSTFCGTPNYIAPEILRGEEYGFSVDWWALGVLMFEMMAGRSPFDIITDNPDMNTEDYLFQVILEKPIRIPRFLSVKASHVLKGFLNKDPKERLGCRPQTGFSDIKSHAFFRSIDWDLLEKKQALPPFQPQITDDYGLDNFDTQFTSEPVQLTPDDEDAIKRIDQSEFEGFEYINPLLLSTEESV
As to the kind of experiment: Inhibition of PKC-zeta assessed as activity remaining at 10 uM.

The target of experiment [12] is T4, Serine/threonine-protein kinase TBK1 (Homo sapiens) (UniProt Q9UHD2).
T4 sequence (whole entry): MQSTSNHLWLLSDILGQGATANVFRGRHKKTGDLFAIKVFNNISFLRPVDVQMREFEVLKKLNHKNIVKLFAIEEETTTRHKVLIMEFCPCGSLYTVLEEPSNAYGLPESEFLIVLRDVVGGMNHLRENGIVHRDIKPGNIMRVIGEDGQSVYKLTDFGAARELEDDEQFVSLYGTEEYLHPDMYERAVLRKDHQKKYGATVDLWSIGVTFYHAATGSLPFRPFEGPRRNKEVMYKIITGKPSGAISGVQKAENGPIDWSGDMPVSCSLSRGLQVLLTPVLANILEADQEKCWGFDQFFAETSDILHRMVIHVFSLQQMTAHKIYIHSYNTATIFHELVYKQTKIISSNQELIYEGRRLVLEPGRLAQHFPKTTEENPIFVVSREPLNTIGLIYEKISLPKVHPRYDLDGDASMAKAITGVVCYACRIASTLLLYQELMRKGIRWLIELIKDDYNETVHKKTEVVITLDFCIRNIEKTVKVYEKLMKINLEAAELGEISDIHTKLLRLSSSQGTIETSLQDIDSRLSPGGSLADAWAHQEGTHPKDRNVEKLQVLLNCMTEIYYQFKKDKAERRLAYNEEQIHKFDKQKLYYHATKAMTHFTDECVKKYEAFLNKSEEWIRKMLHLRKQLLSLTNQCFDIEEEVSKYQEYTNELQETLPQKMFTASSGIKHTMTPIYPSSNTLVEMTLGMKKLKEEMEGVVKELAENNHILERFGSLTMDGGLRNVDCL
As to the kind of experiment: Inhibition of TBK1 assessed as activity remaining at 10 uM.

Tyrosine-protein kinase Fyn (Homo sapiens), sequence (P06241 2-537 limits assumed): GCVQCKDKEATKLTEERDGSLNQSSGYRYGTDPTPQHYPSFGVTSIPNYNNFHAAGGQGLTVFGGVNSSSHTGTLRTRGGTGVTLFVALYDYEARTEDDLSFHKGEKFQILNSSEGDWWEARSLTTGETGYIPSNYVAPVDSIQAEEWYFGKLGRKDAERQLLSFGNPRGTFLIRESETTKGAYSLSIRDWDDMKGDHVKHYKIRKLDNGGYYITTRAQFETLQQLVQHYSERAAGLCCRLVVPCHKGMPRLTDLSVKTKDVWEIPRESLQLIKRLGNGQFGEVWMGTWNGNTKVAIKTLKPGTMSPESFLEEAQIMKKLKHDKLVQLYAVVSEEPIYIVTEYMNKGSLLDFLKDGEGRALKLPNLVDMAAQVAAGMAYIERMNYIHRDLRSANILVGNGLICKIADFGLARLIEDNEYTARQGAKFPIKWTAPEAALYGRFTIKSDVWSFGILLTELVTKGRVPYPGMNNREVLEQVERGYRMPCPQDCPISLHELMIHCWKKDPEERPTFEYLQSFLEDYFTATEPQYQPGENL
SRSF protein kinase 3 (Homo sapiens), sequence (Q9UPE1 whole entry): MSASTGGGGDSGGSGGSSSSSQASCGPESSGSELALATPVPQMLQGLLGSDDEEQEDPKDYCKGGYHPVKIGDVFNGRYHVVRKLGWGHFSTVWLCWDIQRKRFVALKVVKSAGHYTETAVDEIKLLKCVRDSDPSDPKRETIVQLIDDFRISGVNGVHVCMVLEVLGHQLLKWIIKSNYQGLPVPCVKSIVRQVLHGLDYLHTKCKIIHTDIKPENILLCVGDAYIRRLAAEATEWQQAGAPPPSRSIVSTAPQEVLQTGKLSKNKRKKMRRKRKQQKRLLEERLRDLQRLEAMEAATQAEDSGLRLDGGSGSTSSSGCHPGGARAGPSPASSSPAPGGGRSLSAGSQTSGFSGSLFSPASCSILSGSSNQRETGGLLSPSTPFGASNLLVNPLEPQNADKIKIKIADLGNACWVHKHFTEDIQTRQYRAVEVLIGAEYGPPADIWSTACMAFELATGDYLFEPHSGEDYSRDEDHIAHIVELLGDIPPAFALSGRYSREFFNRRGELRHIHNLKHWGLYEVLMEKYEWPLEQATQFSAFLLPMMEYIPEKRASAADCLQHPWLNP
Insulin-like growth factor 1 receptor (Homo sapiens), sequence (P08069 31-736 limits assumed): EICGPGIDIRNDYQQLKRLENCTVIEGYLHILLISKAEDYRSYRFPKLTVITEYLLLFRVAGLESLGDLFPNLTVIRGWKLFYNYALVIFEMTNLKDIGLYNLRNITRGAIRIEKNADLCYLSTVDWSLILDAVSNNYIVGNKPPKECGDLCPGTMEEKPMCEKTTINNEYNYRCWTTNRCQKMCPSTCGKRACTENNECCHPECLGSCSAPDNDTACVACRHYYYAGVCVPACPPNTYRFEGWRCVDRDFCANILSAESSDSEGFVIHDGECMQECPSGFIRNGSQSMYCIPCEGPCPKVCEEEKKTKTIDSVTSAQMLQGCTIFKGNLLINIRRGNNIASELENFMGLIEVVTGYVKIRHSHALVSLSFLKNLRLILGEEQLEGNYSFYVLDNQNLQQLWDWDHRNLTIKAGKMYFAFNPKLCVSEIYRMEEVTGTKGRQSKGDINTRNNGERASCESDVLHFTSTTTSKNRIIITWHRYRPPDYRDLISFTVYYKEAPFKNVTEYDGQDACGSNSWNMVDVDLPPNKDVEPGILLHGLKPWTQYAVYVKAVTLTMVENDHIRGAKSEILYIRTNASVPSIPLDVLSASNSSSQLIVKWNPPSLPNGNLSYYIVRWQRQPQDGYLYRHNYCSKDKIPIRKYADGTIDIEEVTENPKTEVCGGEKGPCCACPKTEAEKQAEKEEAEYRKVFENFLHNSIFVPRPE
Insulin-like growth factor 1 receptor (Homo sapiens), sequence (P08069 741-1367 limits assumed): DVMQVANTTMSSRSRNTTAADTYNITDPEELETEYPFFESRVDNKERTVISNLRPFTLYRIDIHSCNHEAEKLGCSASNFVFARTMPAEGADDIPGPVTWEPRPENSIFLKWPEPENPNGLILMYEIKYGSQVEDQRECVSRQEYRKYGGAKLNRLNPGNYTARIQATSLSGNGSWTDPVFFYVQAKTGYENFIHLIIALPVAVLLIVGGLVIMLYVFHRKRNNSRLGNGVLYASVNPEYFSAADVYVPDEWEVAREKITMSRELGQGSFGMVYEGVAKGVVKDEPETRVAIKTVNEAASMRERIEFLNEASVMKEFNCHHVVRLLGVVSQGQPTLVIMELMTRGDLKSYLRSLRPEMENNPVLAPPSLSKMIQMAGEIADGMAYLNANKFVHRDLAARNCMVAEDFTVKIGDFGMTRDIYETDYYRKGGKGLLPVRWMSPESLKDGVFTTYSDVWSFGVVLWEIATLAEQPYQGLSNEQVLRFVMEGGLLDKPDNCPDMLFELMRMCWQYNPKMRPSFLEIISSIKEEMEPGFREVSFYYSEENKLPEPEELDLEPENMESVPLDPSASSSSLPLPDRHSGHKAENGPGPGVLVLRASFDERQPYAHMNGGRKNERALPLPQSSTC
Fibroblast growth factor receptor 1 (Homo sapiens), sequence (P11362 22-822 limits assumed): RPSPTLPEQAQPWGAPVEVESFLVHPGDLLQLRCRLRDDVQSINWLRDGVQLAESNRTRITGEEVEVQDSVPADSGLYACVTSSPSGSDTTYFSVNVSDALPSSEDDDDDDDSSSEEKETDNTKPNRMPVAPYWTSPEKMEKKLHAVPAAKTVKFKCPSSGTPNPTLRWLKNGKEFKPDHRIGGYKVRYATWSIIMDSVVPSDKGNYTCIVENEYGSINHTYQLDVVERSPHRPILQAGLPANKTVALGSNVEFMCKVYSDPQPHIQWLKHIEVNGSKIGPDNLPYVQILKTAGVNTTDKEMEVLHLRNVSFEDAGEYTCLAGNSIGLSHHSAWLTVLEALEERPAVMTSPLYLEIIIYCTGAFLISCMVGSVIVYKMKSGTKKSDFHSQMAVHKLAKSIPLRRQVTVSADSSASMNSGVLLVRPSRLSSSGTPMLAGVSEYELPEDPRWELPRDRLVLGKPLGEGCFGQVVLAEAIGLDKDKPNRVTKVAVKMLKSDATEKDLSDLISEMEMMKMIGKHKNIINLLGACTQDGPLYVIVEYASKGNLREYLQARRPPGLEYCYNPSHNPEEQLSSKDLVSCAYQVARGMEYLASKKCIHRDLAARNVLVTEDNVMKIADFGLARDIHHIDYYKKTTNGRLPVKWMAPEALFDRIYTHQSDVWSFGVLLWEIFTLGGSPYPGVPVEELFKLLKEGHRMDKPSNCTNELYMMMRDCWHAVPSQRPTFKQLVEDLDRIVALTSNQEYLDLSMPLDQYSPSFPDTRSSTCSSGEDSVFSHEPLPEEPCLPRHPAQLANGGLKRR
Proto-oncogene tyrosine-protein kinase Src (Homo sapiens), sequence (P12931 2-536 limits assumed): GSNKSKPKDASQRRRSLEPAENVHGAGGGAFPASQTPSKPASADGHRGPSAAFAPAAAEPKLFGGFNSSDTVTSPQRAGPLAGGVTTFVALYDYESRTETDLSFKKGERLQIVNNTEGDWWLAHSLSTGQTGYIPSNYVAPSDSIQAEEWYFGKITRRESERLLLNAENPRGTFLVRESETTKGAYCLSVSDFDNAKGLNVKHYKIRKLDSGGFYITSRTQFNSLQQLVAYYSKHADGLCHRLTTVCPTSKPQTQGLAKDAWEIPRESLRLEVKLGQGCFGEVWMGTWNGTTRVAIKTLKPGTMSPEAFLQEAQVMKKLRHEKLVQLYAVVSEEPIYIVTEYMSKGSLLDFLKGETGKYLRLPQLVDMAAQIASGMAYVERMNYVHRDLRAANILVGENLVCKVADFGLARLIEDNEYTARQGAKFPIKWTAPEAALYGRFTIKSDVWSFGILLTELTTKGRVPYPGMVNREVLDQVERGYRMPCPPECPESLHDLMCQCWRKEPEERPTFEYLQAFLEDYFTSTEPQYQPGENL
Protein kinase C theta type (Homo sapiens), sequence (Q04759 whole entry, looked up): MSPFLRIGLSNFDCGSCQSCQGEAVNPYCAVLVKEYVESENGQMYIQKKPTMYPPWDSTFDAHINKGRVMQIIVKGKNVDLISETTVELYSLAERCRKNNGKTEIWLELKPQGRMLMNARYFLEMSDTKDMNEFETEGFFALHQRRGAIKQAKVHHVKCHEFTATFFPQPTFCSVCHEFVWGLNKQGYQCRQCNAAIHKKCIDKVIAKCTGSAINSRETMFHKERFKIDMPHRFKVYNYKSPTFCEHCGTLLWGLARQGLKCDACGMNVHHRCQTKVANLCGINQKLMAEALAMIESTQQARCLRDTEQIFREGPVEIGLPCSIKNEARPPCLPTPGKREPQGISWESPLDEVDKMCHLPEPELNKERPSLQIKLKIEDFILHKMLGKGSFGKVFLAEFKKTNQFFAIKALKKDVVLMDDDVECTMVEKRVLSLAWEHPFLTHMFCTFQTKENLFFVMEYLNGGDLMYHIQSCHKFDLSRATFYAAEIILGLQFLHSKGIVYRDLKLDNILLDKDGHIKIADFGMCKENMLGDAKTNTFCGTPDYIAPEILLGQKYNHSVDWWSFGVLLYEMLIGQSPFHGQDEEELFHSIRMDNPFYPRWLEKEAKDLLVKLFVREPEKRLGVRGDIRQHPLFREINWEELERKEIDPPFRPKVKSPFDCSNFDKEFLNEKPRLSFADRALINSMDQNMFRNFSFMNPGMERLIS

For the compound `O=c1[nH]c2ncc(-c3ccc(-c4nc[nH]n4)cc3)nc2n1CC1CCOCC1`, in [1], 2.6 µM corresponded to half-maximal inhibition (IC50). The Activity in [2] was found to be 92%; in [3] it was 93%; in experiment [4], 102%; in [5] it was 95%; in [6] it was 99%; in experiment [7] it was 88%. Further, the Activity in [8] was found to be 93%; in experiment [9] it was 103%; in [10] it was 82%; in experiment [11], 94%; in experiment [12] it was 94%.
`O=c1[nH]c2ncc(-c3ccc4[nH]cnc4c3)nc2n1CC1CCCCC1` came in with an IC50 in [1] of 20.1 µM. Further, the Activity was determined as 63% in [2]; 63% in experiment [3]; 67% in experiment [4]; 96% in experiment [5]; 96% in experiment [6]; 62% in [7]. Also, the Activity in experiment [8] stood at 91%; in experiment [9] it was 98%; in experiment [10], 73%; in experiment [11], 75%; in [12], 77%.
Consider `CC(C)(O)c1ccc(-c2cnc3[nH]c(=O)n(CC4CCCCC4)c3n2)cc1`, for which, in [1], the IC50 was 21.9 µM. In addition, the Activity amounted to 73% in [2]; 94% in experiment [3]; 73% in [4]; 91% in [5]; 90% in experiment [6]; 83% in [7]. For the same compound, the Activity in experiment [8] is 89%; in experiment [9], 98%; in experiment [10], 80%; in experiment [11], 91%; in [12] it was 91%.

One may read the IC50 as the concentration at which inhibition is half-maximal.
